Test results taken from patent US20150148311A1, “NON-SYSTEMIC TGR5 AGONISTS” (Ardelyx, Inc., priority 2011, published 2015).

What was measured:
human TGR5 = target: T1, human TGR5 (Homo sapiens, UniProt Q8TDU6); assay: Cell-based TGR5 assay, HEK293 cells stably expressing human TGR5, cAMP by HTRF; settings: HEK293 cells stably expressing human TGR5, 30 min at 37 C, 0.05 nM to 10 μM, read-out: pEC50 Human TGR5 (converted)
T1 construct: expressed in transfected cells
T1 sequence (Q8TDU6 1-330): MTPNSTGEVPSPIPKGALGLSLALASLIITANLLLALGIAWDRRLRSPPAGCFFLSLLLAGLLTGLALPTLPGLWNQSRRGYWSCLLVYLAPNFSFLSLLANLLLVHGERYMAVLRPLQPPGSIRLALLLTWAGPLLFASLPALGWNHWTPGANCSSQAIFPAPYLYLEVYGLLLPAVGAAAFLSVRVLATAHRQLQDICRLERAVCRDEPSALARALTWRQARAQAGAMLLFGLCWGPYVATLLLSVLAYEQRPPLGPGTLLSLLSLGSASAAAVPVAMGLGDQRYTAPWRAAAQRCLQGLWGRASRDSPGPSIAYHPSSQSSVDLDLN
Protocol: (§1) Two primary cell based screens were performed. The first utilized HEK293 cells stably transfected to heterologously express human TGR5. The second screen used the human caecum carcinoma cell line NCI-H716 which endogenously expresses human TGR5. In both assays, cells are treated with candidate TGR5 activators and assessed for the increased intercellular levels of cAMP.
HEK293 cells were transfected with a vector that expresses a gene encoding human TGR5, and a stable cell line was isolated using drug selection following standard techniques. Cells were grown overnight at 37° C./5% CO2 prior to assay.
(§2) TGR5-mediated cAMP generation was measured using a homogeneous time resolved fluorescence (HTRF) detection method (Cisbio). Test compounds were dissolved in DMSO to a final concentration of 10 mM. Serial 3-fold dilutions of the stock solution were made in DMSO, and these solutions were diluted 100-fold into Hanks Balanced Salt Solution supplemented with 10 mM HEPES pH 7.4 and 0.5 mM isobutyl methylxanthine (IBMX). Prior to assay, culture medium was replaced with fresh medium, and test compounds diluted in HBSS/HEPES/IBMX were added to the cells and incubated at 37° C. for 30 minutes.
(§3) Following incubation with test compounds, cAMP was detected through the successive addition of cAMP labeled with the modified allophyocyanin dye d2 (cAMP-d2) and cryptate-labeled anti-cAMP in lysis buffer, and reading HTRF per the manufacturer's instructions. A standard curve was used to convert the raw HTRF data into [cAMP].

[1] = target: T2, endogenously expressed TGR5 in NCI H716 (Homo sapiens, UniProt Q8TDU6); assay: Cell-based TGR5 assay, NCI-H716 cells endogenously expressing human TGR5, cAMP by HTRF; settings: 30 min at 37 C, 22 nM to 50 μM, read-out: pEC50 endogenously expressed TGR5 in NCI H716 (converted)
T2 construct: human caecum carcinoma cell line NCI-H716 which endogenously expresses human TGR5; endogenous in cells; host or cells: NCI-H716
T2 sequence (Q8TDU6 1-330): T1 sequence (Q8TDU6 1-330)
Protocol: as §1, with “cAMP. […]” for “cAMP.”
as §2, §3

Row | Compound | EC50 (human TGR5) [nM] | EC50 [1] [nM]
1 | O=C(N1CCCc2ncccc21)C1(OCc2cc(Cl)ccc2Cl)CC1 [Example 86, 1-([1-[(2,5-dichlorophenyl)methoxy]cyclopropyl]carbonyl)-1,2,3,4-tetrahydro-1,5-naphthyridine] | > 10000 | > 50100
2 | CC(=O)N1CC(OCc2cc(Cl)ccc2Cl)(C(=O)N2CCN(C3CC3)c3ccccc32)C1 [Example 54, 1-(3-(4-cyclopropyl-1,2,3,4-tetrahydroquinoxaline-1-carbonyl)-3-(2,5-dichlorobenzyloxyl)azetidin-1-yl)ethanone] | 126 to 1000 | 1260 to 50100
3 | Cc1ccc(Cl)c(CN2CCC[C@H]2C(=O)N2CCN(C3CC3)c3ccccc32)c1F [Example 245] | 1260 to 50100 | 1260 to 50100
4 | NCCCc1ccc(Cl)c(CNC2(C(=O)N3CCN(C4CC4)c4ccccc43)CC2)c1 [Example 68, (1-((5-(3-aminopropyl)-2-chlorobenzyl)amino)cyclopropyl)(4-cyclopropyl-3,4-dihydroquinoxalin-1(2H)-yl)methanone] | 1260 to 50100 | 1260 to 50100
5 | CN(C[C@H](O)[C@@H](O)[C@H](O)[C@H](O)CO)C(=O)CCCOc1cc(Cl)c(CN2CSC[C@H]2C(=O)N2CCN(C3CC3)c3ccccc32)cc1Cl [Example 189] | < 100 | 126 to 1000
6 | CN(C[C@H](O)[C@@H](O)[C@H](O)[C@H](O)CO)C(=O)NCCOc1cc(Cl)c(CNC2(C(=O)N3CCN(C4CC4)c4ccccc43)CC2)cc1Cl [Example 185] | 126 to 1000 | 1260 to 50100
7 | CN(C[C@H](O)[C@@H](O)[C@H](O)[C@H](O)CO)C(=O)CCc1cc(Cl)c(CN2CCC[C@H]2C(=O)N2CCN(C3CC3)c3ccccc32)cc1Cl [Example 48, 3-(2,5-dichloro-4-(((S)-2-(4-cyclopropyl-1,2,3,4-tetrahydroquinoxaline-1carbonyl)pyrrolidin-1-yl)methyl)phenyl)-N-methyl-N-((2S,3R,4R,5R)-2,3,4,5,6-pentahydroxyhexyl)propanamide] | 126 to 1000 | 1260 to 50100
8 | CN(C[C@H](O)[C@@H](O)[C@@H](O)[C@H](O)CO)C(=O)CCCCc1cc(Cl)c(CNC2(C(=O)N3CCN(C4CC4)c4ccccc43)CC2)cc1Cl [Example 220] | < 100 | < 100
9 | Cc1cccc(CC2CCCN2C(=O)N2CCN(C3CC3)c3ccccc32)c1 (centres unmarked) [Example 58] | 1260 to 50100 | 1260 to 50100
10 | O=C(N1CCN(C2CC2)c2ccccc21)C1(CSc2cc(Cl)ccc2Cl)CC1 [Example 180, (4-cyclopropyl-3,4-dihydroquinoxalin-1(2H)-yl)(1-((2,5-dichlorophenylthio)methyl)cyclopropyl)methanone] | < 100 | 126 to 1000
11 | O=C([C@@H]1SCCN1Cc1cc(Cl)ccc1C(F)(F)F)N1CCN(C2CC2)c2ccccc21 [Example 268] | < 100 | 126 to 1000
12 | COc1ccccc1N(C)C(=O)C1(NCc2cc(Cl)ccc2Cl)CC1 [Example 38, 1-(2,5-dichlorobenzylamino)-N-(2-methoxyphenyl)-N-methylcyclopropanecarboxamide] | < 100 | < 100
13 | CN(C(=O)C1(OCc2cc(Cl)c(CCCCNC(=O)NC[C@H](O)[C@@H](O)[C@H](O)[C@H](O)CO)cc2Cl)CC1)c1ccccc1OC1CC1 [Example 257] | < 100 | 126 to 1000
14 | CN(C[C@H](O)[C@@H](O)[C@H](O)[C@H](O)CO)C(=O)NCCCc1ccc(Cl)c(CNC2(C(=O)N3CCN(C4CC4)c4ccccc43)CC2)c1 [Example 69, 3-(3-(4-chloro-3-(((1-(4-cyclopropyl-1,2,3,4-tetrahydroquinoxaline-1-carbonyl)cyclopropyl)amino)methyl)phenyl)propyl)-1-methyl-1-((2S,3R,4R,5R)-2,3,4,5,6-pentahydroxyhexyl)urea] | 1260 to 50100 | 1260 to 50100
15 | CN(C(=O)C1(OCc2cc(Cl)ccc2Cl)CC1)c1ccccc1OC1CCC1 [Example 72, N-(2-cyclobutoxyphenyl)-1-(2,5-dichlorobenzyloxy)-N-methylcyclopropanecarboxamide] | < 100 | < 100
16 | CN(C[C@H](O)[C@@H](O)[C@H](O)[C@H](O)CO)C(=O)NCCCCc1ccc(Cl)c(CNC2(C(=O)N3CCN(C4CC4)c4ccccc43)CC2)c1 [Example 213] | 126 to 1000 | 1260 to 50100

Row | Compound | EC50 (human TGR5) [nM] | EC50 [1] [nM]
17 | O=C(NCCCc1cc(Cl)c(CNC2(C(=O)N3CCN(C4CC4)c4ccccc43)CC2)cc1Cl)NCCOCCOCCNC(=O)NCCCc1cc(Cl)c(CNC2(C(=O)N3CCN(C4CC4)c4ccccc43)CC2)cc1Cl [Example 212] | 1260 to 50100 | 1260 to 50100
18 | CN(C[C@H](O)[C@@H](O)[C@H](O)[C@H](O)CO)C(=O)NCCOc1cc(Cl)c(CN2CSC[C@H]2C(=O)N2CCN(C3CC3)c3ccccc32)cc1Cl [Example 184] | 126 to 1000 | 126 to 1000
19 | CN1CC(OCc2cc(Cl)ccc2Cl)(C(=O)N2CCN(C3CC3)c3ccccc32)C1 [Example 51, (4-cyclopropyl-3,4-dihydroquinoxalin-1(2H)-yl)(3-(2,5-dichlorobenzyloxy)-1-methylazetidin-3-yl)methanone] | 126 to 1000 | 1260 to 50100
20 | CN(C[C@H](O)[C@@H](O)[C@H](O)[C@H](O)CO)C(=O)NCCCCOc1cc(Cl)c(CNC2(C(=O)N3CCN(C4CC4)c4ccccc43)CC2)cc1Cl [Example 186] | 126 to 1000 | 1260 to 50100
21 | O=C(N1CCN(C2CC2)c2ccccc21)C1(NCc2cc(C(F)(F)F)ccc2Cl)CC1 [Example 255] | < 100 | < 100
22 | CC(C)N1CC(OCc2cc(Cl)ccc2Cl)(C(=O)N2CCN(C3CC3)c3ccccc32)C1 [Example 53, (4-cyclopropyl-3,4-dihydroquinoxalin-1(2H)-yl)(3-(2,5-dichlorobenzyloxy)-1-isopropylazetidin-3-yl)methanone] | 1260 to 50100 | 1260 to 50100
23 | O=C(O)CCc1cc(Cl)c(OCC2(C(=O)N3CCN(C4CC4)c4ccccc43)CC2)cc1Cl [Example 33, 3-[2,5-dichloro-4-([1-[(4-cyclopropyl-1,2,3,4-tetrahydroquinoxalin-1-yl)carbonyl]cyclopropyl]methoxy)phenyl]propanoic acid] | 1260 to 50100 | 1260 to 50100
24 | CCN1CC(OCc2cc(Cl)ccc2Cl)(C(=O)N2CCN(C3CC3)c3ccccc32)C1 [Example 52, (4-cyclopropyl-3,4-dihydroquinoxalin-1(2H)-yl)(3-(2,5-dichlorobenzyloxy)-1-ethylazetidin-3-yl)methanone] | 126 to 1000 | 1260 to 50100
25 | CC(NCc1cc(Cl)ccc1Cl)C(=O)N1CCN(C2CC2)c2ccccc21 (centres unmarked) [Example 7, 1-(4-cyclopropyl-3,4-dihydroquinoxalin-1(2H)-yl)-2-(2,5-dichlorobenzylamino)propan-1-one] | 126 to 1000 | 1260 to 50100
26 | CS(=O)(=O)N1CC(OCc2cc(Cl)ccc2Cl)(C(=O)N2CCN(C3CC3)c3ccccc32)C1 [Example 55, (4-cyclopropyl-3,4-dihydroquinoxalin-1(2H)-yl)(3-(2,5-dichlorobenzyloxy)-1-(methylsulfonyl)azetidin-3-yl)methanone] | 126 to 1000 | 1260 to 50100
27 | COc1cc(Cl)c(CNC2(C(=O)N3CCN(C4CC4)c4ccccc43)CC2)cc1Cl [Example 256] | 126 to 1000 | 126 to 1000
28 | O=C([C@@H]1CCCN1Cc1cc(Cl)ccc1C(F)(F)F)N1CCN(C2CC2)c2ccccc21 [Example 46, (S)-(1-(5-chloro-2-(trifluoromethyl)benzyl)pyrrolidin-2-yl)(4-cyclopropyl-3,4-dihydroquinoxaline-1(2H)-yl)methanone] | < 100 | 126 to 1000
29 | Cc1ccc(Cl)c(COC2(C(=O)N3CCN(C4CC4)c4ccccc43)CC2)c1F [Example 249] | 1260 to 50100 | 1260 to 50100
30 | O=C(O)CCCOc1cc(Cl)c(CNC2(C(=O)N3CCN(C4CC4)c4ccccc43)CC2)cc1Cl [Example 187] | 126 to 1000 | 1260 to 50100
31 | CN(C[C@H](O)[C@@H](O)[C@H](O)[C@H](O)CO)C(=O)NCCCc1ccc(Cl)c(CN2CSC[C@H]2C(=O)N2CCN(C3CC3)c3ccccc32)c1 [Example 217] | 126 to 1000 | 1260 to 50100
